Experimental data taken from patent US11957684B2, “Treatment of heavy menstrual bleeding associated with uterine fibroids” (Sumitomo Pharma Switzerland GmbH, priority 2016, dated 2024).
Several values for one entry are separate records, joined by “and”; a condition that tells them apart may be missing. Equal values may be shown once.

Tests used:
[1] = Single dose (1 to 80 mg) and 14-day multiple dose (10 to 40 mg) PK of the Compound 1 formulation; type: in vivo; details: for half-life: read-out: mean plasma half-life (T1/2)
Source text: However, in a preferred embodiment, the pharmacokinetics of the Compound 1 formulation are not affected by food intake.
The mean plasma AUC after a single dose was higher after fasted dosing than after postprandial or preprandial dosing. The mean plasma AUC and mean Cmax with multiple dosing were higher with preprandial than with postprandial dosing.

[2] = Example 9 6-week phase 1 study with or without E2/NETA: pharmacokinetics; type: in vivo; details: female, human, plasma, 40 mg; for half-life: plasma Compound 1 t1/2, mean (SD); for Tmax: plasma Compound 1 tmax, median (min, max)
Source text: Methods: This was a 6-week phase 1, randomized, open-label, parallel-group, study conducted at 4 sites in the US. […] The first day of dosing occurred on Day 1 to 6 of the menstrual cycle. Hormonal preparations were prohibited for at least 3 months prior to screening. […] Vasomotor symptoms were captured using a daily diary (from screening until follow-up).

FIG. 6B = test: FIG. 6B
Method: Table printed on a drawing sheet, FIG. 6B
(§1) The patent's description of the figure: FIGS. 6A-C are tables of plasma PK parameters for Cohort 7 in accordance with Example 4.
(§2) First reader's note: Part of a plasma PK table series (FIGS. 6A-C) for Cohort 7; each column is a fed or fasted 40 mg arm.

[3] = tested on: LH, FSH, estradiol (E2), progesterone (P); test: Example 5A: serum LH, FSH, E2, P; type: in vivo, human
Method: At Visit 3, blood was drawn twice, at 0.5 to 1.5 hours postdose and at 2 to 5 hours postdose, from each evaluable subject. At Visits 4, 5 and 6, blood was drawn once immediately prior to the dose for each day, and again at 0.5 to 1.5 hours postdose and at 2 to 5 hours postdose, from each evaluable subject. Blood was drawn only once for patients who took the study drug for the day before visiting the investigational site. At Visit 7, blood was drawn only once at the visit.

FIG. 6A = test: FIG. 6A
Method: Table printed on a drawing sheet, FIG. 6A
as §1
First reader's note: Plasma PK parameters for the fed and fasted 40 mg arms; the table continues in FIGS. 6B-C on other sheets.

FIG. 7E = test: FIG. 7E
Source text: Table printed on a drawing sheet, FIG. 7E
(§3) The patent's description of the figure: FIGS. 7A-F are tables of plasma PK parameters for Cohorts 8 to 10 in accordance with Example 4.
First reader's note: Each column is a dose group; according to the description these are plasma PK parameters on Day 14 (Cohorts 8 to 10).

FIG. 7D = test: FIG. 7D
Source text: Table printed on a drawing sheet, FIG. 7D
as §3

FIG. 6C = test: FIG. 6C
Method: Table printed on a drawing sheet, FIG. 6C
as §1, §2

clinical = details: for half-life: human, in vivo
Source text: (See J. W. Ng, et al., “Dose-Dependent Suppression of Gonadotropins and Ovarian Hormones by Elagolix in Healthy Premenopausal Females” (poster, 2016); J. Grundy, et al., […] (2008), Vol 83: Supplement 1, S9).

[4] = human, in vivo; cited from earlier work
[5] = human, plasma, po, Day 14 of multiple doses of 10 to 40 mg

CONC(=O)Nc1ccc(-c2sc3c(c2CN(C)C)c(=O)n(-c2ccc(OC)nn2)c(=O)n3Cc2c(F)cccc2F)cc1 [Compound 1, N-(4-(1-(2,6-difluorobenzyl)-5-((dimethylamino)methyl)-3-(6-methoxy-3-pyridazinyl)-2,4-dioxo-1,2,3,4-tetrahydrothieno[2,3-d]pyrimidin-6-yl)phenyl)-N′-methoxyurea]
half-life ([1]; human, plasma, po, single dose 1 to 80 mg): 7.1 to 19.8 h
Tmax [1, 5]: 1 to 1.5 h
half-life [1, 5]: 19.2 to 24.6 h
day by which steady state was reached ([1]; multiple dosing): ≤ 7 days
AUC(0-t) ([2]; Compound 1 AUC0-24, geometric mean (CV%), Week 6): 116 ng·h/mL
Cmax ([2]; Compound 1 Cmax, geometric mean (CV%), Week 6): 17.6 ng/mL
AUC(0-t) ([2]; plasma Compound 1 AUC0-24, mean (SD), Week 3): 133 ng·h/mL
AUC(0-t) ([2]; plasma Compound 1 AUC0-24, mean (SD), Week 6): 125 ng·h/mL
concentration at 3 week ([2]; plasma Compound 1 Cavg, mean (SD), Week 3): 5.53 ng/mL
concentration at 6 week ([2]; plasma Compound 1 Cavg, mean (SD), Week 6): 5.2 ng/mL
Cmax ([2]; plasma Compound 1 Cmax, mean (SD), Week 3): 21.8 ng/mL
Cmax ([2]; plasma Compound 1 Cmax, mean (SD), Week 6): 19.5 ng/mL
concentration at 3 week ([2]; plasma Compound 1 Ctrough, mean (SD), Week 3): 2.57 ng/mL
concentration at 6 week ([2]; plasma Compound 1 Ctrough, mean (SD), Week 6): 2.45 ng/mL
half-life ([2]; Week 3): 16.7 h
half-life ([2]; Week 6): 17.1 h
Tmax ([2]; Week 3): 2.02 h
Tmax ([2]; Week 6): 2 h
Lambda_z (1/hr) | Mean (FIG. 6B): 0.04147 h⁻¹ and 0.04013 h⁻¹
T1/2 (hr) | Mean (FIG. 6B): 16.9911 h and 17.6896 h
Tmax (hr) | Median (FIG. 6B): 3.005 h and 3.980 h
median serum E2 ([3]; 10 mg, Week 2): 82.5 pg/mL
median serum FSH ([3]; 10 mg, Week 2): 5.990 mIU/mL
median serum LH ([3]; 10 mg, Week 2): 3.815 mIU/mL
median serum P ([3]; 10 mg, Week 2): 0.315 ng/mL
median serum E2 ([3]; 10 mg, Week 4): 58.0 pg/mL
median serum FSH ([3]; 10 mg, Week 4): 5.225 mIU/mL
median serum LH ([3]; 10 mg, Week 4): 2.565 mIU/mL
median serum P ([3]; 10 mg, Week 4): 0.440 ng/mL
median serum E2 ([3]; 10 mg, Week 8): 52.0 pg/mL
median serum FSH ([3]; 10 mg, Week 8): 6.150 mIU/mL
median serum LH ([3]; 10 mg, Week 8): 3.460 mIU/mL
median serum P ([3]; 10 mg, Week 8): 0.360 ng/mL
median change in serum E2 from baseline ([3]; 10 mg, Week 12): 0.0 pg/mL
median change in serum FSH from baseline ([3]; 10 mg, Week 12): −1.060 mIU/mL
median change in serum LH from baseline ([3]; 10 mg, Week 12): 0.420 mIU/mL
median change in serum P from baseline ([3]; 10 mg, Week 12): 0.080 ng/mL
median serum E2 ([3]; 10 mg, Week 12): 57.0 pg/mL
median serum FSH ([3]; 10 mg, Week 12): 6.200 mIU/mL
median serum LH ([3]; 10 mg, Week 12): 3.550 mIU/mL
median serum P ([3]; 10 mg, Week 12): 0.410 ng/mL
median serum E2 ([3]; 20 mg, Week 2): 25.0 pg/mL
median serum FSH ([3]; 20 mg, Week 2): 5.705 mIU/mL
median serum LH ([3]; 20 mg, Week 2): 2.520 mIU/mL
median serum P ([3]; 20 mg, Week 2): 0.235 ng/mL
median serum E2 ([3]; 20 mg, Week 4): 23.5 pg/mL
median serum FSH ([3]; 20 mg, Week 4): 4.660 mIU/mL
median serum LH ([3]; 20 mg, Week 4): 1.750 mIU/mL
median serum P ([3]; 20 mg, Week 4): 0.270 ng/mL
median serum E2 ([3]; 20 mg, Week 8): 16.0 pg/mL
median serum FSH ([3]; 20 mg, Week 8): 4.840 mIU/mL
median serum LH ([3]; 20 mg, Week 8): 2.260 mIU/mL
median serum P ([3]; 20 mg, Week 8): 0.250 ng/mL
median change in serum E2 from baseline ([3]; 20 mg, Week 12): -18.5 pg/mL
median change in serum FSH from baseline ([3]; 20 mg, Week 12): −0.720 mIU/mL
median change in serum LH from baseline ([3]; 20 mg, Week 12): −0.895 mIU/mL
median change in serum P from baseline ([3]; 20 mg, Week 12): -0.090 ng/mL
median serum E2 ([3]; 20 mg, Week 12): 13.0 pg/mL
median serum FSH ([3]; 20 mg, Week 12): 5.710 mIU/mL
median serum LH ([3]; 20 mg, Week 12): 2.685 mIU/mL
median serum P ([3]; 20 mg, Week 12): 0.250 ng/mL
median serum FSH ([3]; 40 mg, Week 2): 4.280 mIU/mL
median serum LH ([3]; 40 mg, Week 2): 0.720 mIU/mL
median serum P ([3]; 40 mg, Week 2): 0.230 ng/mL
median serum E2 ([3]; 40 mg, Week 4): 0.0 pg/mL
median serum FSH ([3]; 40 mg, Week 4): 3.710 mIU/mL
median serum LH ([3]; 40 mg, Week 4): 0.550 mIU/mL
median serum P ([3]; 40 mg, Week 4): 0.240 ng/mL
median serum E2 ([3]; 40 mg, Week 8): 0.0 pg/mL
median serum FSH ([3]; 40 mg, Week 8): 3.210 mIU/mL
median serum LH ([3]; 40 mg, Week 8): 0.570 mIU/mL
median serum P ([3]; 40 mg, Week 8): 0.220 ng/mL
median change in serum E2 from baseline ([3]; 40 mg, Week 12): -35.0 pg/mL
median change in serum FSH from baseline ([3]; 40 mg, Week 12): −3.180 mIU/mL
median change in serum LH from baseline ([3]; 40 mg, Week 12): −2.760 mIU/mL
median change in serum P from baseline ([3]; 40 mg, Week 12): -0.060 ng/mL
median serum E2 ([3]; 40 mg, Week 12): 0.0 pg/mL
median serum FSH ([3]; 40 mg, Week 12): 2.950 mIU/mL
median serum LH ([3]; 40 mg, Week 12): 0.650 mIU/mL
median serum P ([3]; 40 mg, Week 12): 0.250 ng/mL
AUC (O-inf) (ng*hr/mL) | Mean (FIG. 6A): 63.437 ng·h/mL and 125.275 ng·h/mL
AUC (O-tlqc) (ng*hr/mL) | Mean (FIG. 6A): 55.792 ng·h/mL and 110.782 ng·h/mL
CL/F (L/hr) | Mean (FIG. 7E): 569.7 L/h and 436.3 L/h and 373.4 L/h
Vz/F (L) | Mean (FIG. 7E): 5041.8 L and 3618.3 L and 3086.5 L
Tmax (hr) | Median (FIG. 7D): 0.980 h and 1.480 h and 1.000 h
CL/F (L/hr) | Mean (FIG. 6C): 739.7 L/h and 445.4 L/h
Vz/F (L) | Mean (FIG. 6C): 17932.0 L and 11042.3 L
E2 in the majority of subjects (clinical; 40 mg per day): below 10 pg/mL
half-life (clinical; T1/2, highest found): ~61 h
half-life (clinical; half-life (T1/2)): 37 to 42 h

CCNC(=O)[C@@H]1CCCN1C(=O)[C@H](CCCNC(=N)N)NC(=O)[C@H](CC(C)C)NC(=O)[C@@H](CC(C)C)NC(=O)[C@H](Cc1ccc(O)cc1)NC(=O)[C@H](CO)NC(=O)[C@H](Cc1c[nH]c2ccccc12)NC(=O)[C@H](Cc1c[nH]cn1)NC(=O)[C@@H]1CCC(=O)N1 [leuprolide acetate, reference compound]
bone mineral density decrease [4]: −2.21±1.709%
women with a decrease of more than 5.0% in bone mineral density [4]: 10 of 157
